Measured values taken from patent publication US20130150430A1, “Methods for Impairing the P53/HDM2 Auto-Regulatory Loop in Multiple Myeloma Development Using mIR-192, mIR-194 and mIR-215” (THE OHIO STATE UNIVERSITY, priority 2011, published 2013).

Columns and labels:
Format in all cases: cell-based, human
[1] = test system: MM cells carrying WT TP53 (MM1s, NCI-H929, KMS28BM); test: MTS cell viability assay after miRNA transfection; settings: transfected cells vs scrambled sequences, 24, 48, 72 hrs after transfection
Description: (§1) FIG. 3A, FIG. 3B, FIG. 3C, FIG. 3D: MTS assay performed in MM1s (FIG. 3A), NCI-929 (FIG. 3B), KMS28BM (FIG. 3C) and RPMI-8226 (FIG. 3D) cell lines. Cells were transfected with miR-192, miR-215 and scrambled sequence (Scr) and were harvested at 24, 48, and 72 hrs after transfection. P values are indicated.
(§2) CD-138+ PCs obtained from new diagnosed MM subjects and isolated as previously described were transfected by using nucleoporation (LONZA) Cell Line Nucleofector Kit V (Cat#VCA-1003). MM1s, NCI-H929 cell lines were transfected by using nucleoporation (LONZA) Cell Line Nucleofector Kit V (Cat#VCA-1003). Instead for U266, KMS-28BM and RPMI-8226 Cell Line Nucleofector Kit C (Cat#VCA-1004) was used. Specifically for primary cells 1×10^6 CD-138+ PCs were resuspended in […] of V solution and 100 nM miRNA precursors (Ambion) was used for the transfection reaction. For MM cell lines 5×10^6 cells were re-suspended in 100 μl of nucleofector solution V/C and 100 nM of miRNAs precursor or 100 nM LNA miRNA antisense oligonucleotides (Ambion) was used for each transfection point. Protein lysates and total RNA were collected at the time indicated. miRNA processing and expression were verified by northern blot and stem-loop qRT-PCR.
(§3) Cells were plated in 96-well plates in triplicate and incubated at 37° C. in a 5% CO2 incubator. Cell viability was examined with 3-(4,5-dimethylthiazol-2-yl)-2,5-dipheniltetrazolium bromide (MTT)-Cell Titer 96AQueous One Solution Cell Proliferation Assay (Promega), according to the manufacturer's protocol. Metabolically active cells were detected by adding 20 μl of MTT to each well. After 1 hr incubation, the plates were analyzed in a Multi label Counter (Bio-Rad Laboratories). Apoptosis was assessed using Annexin V-FITC apoptosis detection kits followed by flow cytometric analysis. For Annexin V staining, MM cells (pre-miRNAs pool or Scrambled transfected) were treated with MI-219 at different concentrations (0, 2.5, 5.0, 10 μM) for 24 hr and then treated as for DNA content analysis, except that fixation was omitted and the Cells (5×10^5 per sample) were resuspended in PBS containing 25 μg/ml Annexin-V-FLUOS (Roche Applied Science) and 50 μg/ml PI prior to FACS analysis. The percentage of apoptosis indicated was corrected for background levels found in the corresponding untreated controls. The percentage of apoptotic cells was expressed as the mean±SD of three experiments.

[2] = test system: RPMI-8226 cells expressing mutant TP53; test: MTS cell viability assay after miRNA transfection; settings: transfected RPMI-8226 cells
Description: as §1, §2, §3

[3] = test system: p53, MDM2, p21 and Puma in MM1s cells; test: Western blot and densitometry in miRNA-transfected cells treated with MI-219; settings: for p53 protein in cells not treated with MI-219: forced miRNA expression, untreated MM1s cells, p<0.05; for p53 re-expression with p21 and Puma up-regulation: miRNA-transfected MM1s cells, 24 hr of 2.5 μM MI-219
Description: FIG. 5A: Effects of miR-192, miR-194 and miR-215 on endogenous p53, p21 and MDM2 levels (Western blots) in MM1s cells treated with MI-219 at different concentrations.
FIG. 5B: Densitometric analysis only for p53 in untreated cells and for p53 and MDM2 protein levels in 2.5, 5 and 10 μM MI-219-treated cells. All experiments were performed in triplicate ±SD.
Samples were extracted in 15 mM Tris.Cl, pH 7.5/120 mM NaCl/25 mM KCl/2 mM EGTA/0.1 mM DTT/0.5% Triton X-100/[…] leupeptin/0.5 mM PMSF. Total protein (35 μg) from each sample was separated on a 4-20% Tris-HCl-Criterion precast gel Bio-Rad (cat#345-0032, Hercules, Calif.) and transferred to a poly(vinylidene difluoride) filter (Millipore). The filter was blocked in 5% nonfat dry milk, incubated with the specific antibody, washed, and probed with secondary antibody IgG conjugated to horseradish peroxidase (Santa Cruz Biotechnology), and developed with enhanced chemiluminescence (Amersham Pharmacia). Immunoblot analyses were performed using the following antibodies: p53 (sc-53394, Santa Cruz Biotechnology), MDM2 (sc-965, Santa Cruz Biotechnology), phospho-MDM2 (Cat#3521, Cell Signaling), c-MYC (cs-40, Santa Cruz Biotechnology), IGF-1 (sc-9013, Santa Cruz Biotechnology), IGF-1R (Cat#3027, Cell Signaling), total-Akt (Cat#9272, Cell signaling), phospho-Akt (Cat#4060, Cell Signaling), total-S6 (Cat#2217, Cell Signaling), phospho-S6 (Cat#2211, Cell Signaling), p21 (sc-817, Santa Cruz Biotechnology), α-PUMA (Cat#4976, Cell Signaling), GAPDH (Cat#2118, Cell Signaling). Filters were reprobed with enzyme-conjugated antibodies to GFP and β-actin (Santa Cruz Biotechnology).
MM cells (from MM subjects or from cell lines) non-transfected or transfected with pre- or ASOs miR-192, miR-215, miR-194 and Scr sequence as described above, were treated with MDM2 inhibitor (Nutlin3a and MI-219). Fresh CD138+ primary PCs isolated from new diagnosed MM subjects as previously described were maintained in culture for 24 hr and then treated for 24 hr with 10 μM Nutlin-3a (Cayman Chemical Company) or vehicle (DMSO). For transfected cells at 24 hrs after transfection MM cells were treated with 10 μM Nutlin-3a (Cayman Chemical Company) or DMSO vehicle only at different time points. MMIS cells were also treated with MI-219 solution (10% PEG400/3% Cremophor EL/87% 1×PBS) or only vehicle (10% PEG400/3% Cremophor EL/87% 1×PBS) at different concentration (2.5, 5 and 10 μM) for 24 hr and collected for RNA and protein extractions.

[4] = test system: MDM2 mRNA in MM1s and NCI-H929 cells; test: RT-PCR of MDM2 mRNA after miRNA transfection and Nutlin-3a; settings: transfected cells at 6 and 12 hr of Nutlin-3a treatment, both cell lines
Description: FIG. 4F: MDM2 mRNA expression normalized for GAPDH mRNA expression in MM1s and NCIH929 cells miRNAs or Scr transfected after Nutlin-3a treatment (6-12 hr).
RNA was isolated from cell lines using Trizol reagent (Invitrogen) as per the manufacturer's protocol. An aliquot of 5 μg RNA was then used for cDNA synthesis using the SuperScript first strand cDNA synthesis kit (Invitrogen). RT-PCRs were carried out using ABI Prism 7900HT sequence detection systems with Applied Biosystems TaqMan Gene expression assays (p21 (CDKN1A):Hs01121172_ml; MYC:Hs99999003_ml; TP53:Hs00153349_ml; MDM2: Hs01066938_ml).

Substance	growth arrest (MTS assay) [1]	growth arrest (MTS assay) [2]	p53 protein in cells not treated with MI-219 [3]	p53 re-expression with p21 and Puma up-regulation [3]	MDM2 mRNA levels [4]
miR-192: microRNA, p53-activated, down-regulated in MM; transfected as miRNA precursor (Ambion) or lentivector; SEQ ID NO:56 (CUGACCUAUGAAUUGACAGCC; listed as RNA, chemistry not given here; listed as Homo sapiens)	significant growth arrest	did not detect this effect	p53 became detectable	Dramatic p53 re-expression	strongly reduced
miR-215: microRNA, p53-activated, down-regulated in MM; transfected as miRNA precursor (Ambion) or lentivector; SEQ ID NO:58 (AUGACCUAUGAAUUGACAGAC; listed as RNA, chemistry not given here; listed as Homo sapiens)	significant growth arrest	did not detect this effect	p53 became detectable	Dramatic p53 re-expression	strongly reduced
